Each block holds one compound with its values, some of them ahead of it.
Columns and labels:
[1] = Protein binding assay (HT dialysis), human liver microsomes; type: in vitro ADME; details: pH 7.4, Human liver microsomes 0.5 mg/mL, Mean ± SEM, n = 3, read-out: Fu Microsomes (converted)
Description: (§1) Unbound fractions of test compounds in plasma, brain homogenate and liver microsomes were determined using high-throughput dialysis (HT dialysis). Briefly, dialysis membranes were soaked in deionized water for 20 minutes and then in deionized water with 30% ethanol for 15 minutes and finally in phosphate buffer until use. Membranes were rinsed in phosphate buffer before assembling. The membranes were layered between teflon bars of dialysis assembly. Stock solutions of test compound/comparative compound were prepared at 10 mM in DMSO, diluted to 1 mM in acetonitrile and further diluted to 100 μM in mixture of water and acetonitrile (1:1 v/v). Human plasma (pool of 3) was prepared from human blood (3 donors) by centrifuging at 4000 rpm for 10 min at 4° C. Rat and dog blood were obtained on the day of the study and centrifuged to obtain plasma. Rat brains were isolated, cleaned and homogenized with 2 volumes of buffer (3 fold dilution). Liver microsomes were prepared at 0.5 mg/mL in phosphate buffer (100 mM, pH 7.4). The dialysate chambers were loaded with 150 μL of 100 mM phosphate buffer (pH 7.4) in triplicates. The matrix chambers were loaded with 150 μL of the plasma or brain homogenate or microsomal suspension spiked with test compound/comparative compound at a final concentration of 1 μM. 50 μL of the sample was removed from both the chambers at 0 h. The plate was sealed and incubated at 37° C. for 6 h at 100 rpm. After 6 h, 50 μL of the sample was removed from both the chambers. Equal volumes of buffer or human plasma/microsomal suspension were added to the plasma/microsomal and buffer samples respectively to create identical sample matrices for analysis. The samples were precipitated with 150 μL of acetonitrile containing fluoxetine as an internal standard. All the samples were centrifuged at 10000 rpm for 10 minutes at 4° C.

[2] = Protein binding assay (HT dialysis), rat brain homogenate; type: in vitro ADME; details: pH 7.4, Mean ± SEM, n = 3, read-out: Fu Brain
Description: as §1

[3] = Protein binding assay (HT dialysis), dog liver microsomes; type: in vitro ADME; details: pH 7.4, Dog liver microsomes 0.5 mg/mL, Mean ± SEM, n = 3, read-out: Fu Microsomes (converted)
Description: as §1

[4] = Protein binding assay (HT dialysis), rat plasma; type: in vitro ADME; details: pH 7.4, Mean ± SEM, n = 3, read-out: Fu Plasma
Description: as §1

[5] = Protein binding assay (HT dialysis), dog plasma; type: in vitro ADME; details: pH 7.4, Mean ± SEM, n = 3, read-out: Fu Plasma (converted)
Description: as §1

[6] = Protein binding assay (HT dialysis), human plasma; type: in vitro ADME; details: pH 7.4, Mean ± SEM, n = 3, read-out: Fu Plasma (converted)
Description: as §1

[7] = Protein binding assay (HT dialysis), rat liver microsomes; type: in vitro ADME; details: pH 7.4, Rat liver microsomes 0.5 mg/mL, Mean ± SEM, n = 3, read-out: Fu Microsomes
Description: as §1

[8] = target: T1, human Muscarinic M1 receptor (Homo sapiens, UniProt P11229); experiment: Allosteric potency EC50 for muscarinic M1 receptor, CHO pCRE-Luc reporter cell assay; type: cell-based; details: in presence of EC20 of acetylcholine; CHO cells, luciferase reporter, 4 h
T1 sequence (P11229 1-460): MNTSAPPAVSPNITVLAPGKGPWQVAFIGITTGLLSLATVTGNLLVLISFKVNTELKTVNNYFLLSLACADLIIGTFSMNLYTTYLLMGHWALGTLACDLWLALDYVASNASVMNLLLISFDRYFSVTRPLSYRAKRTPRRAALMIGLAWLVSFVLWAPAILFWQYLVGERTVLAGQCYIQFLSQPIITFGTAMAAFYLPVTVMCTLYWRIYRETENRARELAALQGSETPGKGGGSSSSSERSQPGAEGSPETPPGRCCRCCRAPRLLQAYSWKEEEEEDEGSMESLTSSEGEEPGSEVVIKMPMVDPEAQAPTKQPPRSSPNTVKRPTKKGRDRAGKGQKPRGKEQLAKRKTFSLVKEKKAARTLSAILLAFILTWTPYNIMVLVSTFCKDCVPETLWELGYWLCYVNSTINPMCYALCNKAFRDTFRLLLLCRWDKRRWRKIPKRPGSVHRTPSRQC
Description: A stable CHO cell line expressing recombinant human Muscarinic M1 receptor and pCRE-Luc reporter system was used for cell-based assay. The assay offers a non-radioactive based approach to determine binding of a compound to GPCRs. In this specific assay, the level of intracellular cyclic AMP which is modulated by activation or inhibition of the receptor is measured. The recombinant cells harbor luciferase reporter gene under the control of cAMP response element.
The above cells were grown in 96 well clear bottom white plates in Hams F12 medium containing 10% fetal bovine serum (FBS). Prior to the addition of compounds or standard agonist, cells were serum starved overnight. Increasing concentrations of test compounds were added along with EC20 of acetylcholine in OptiMEM medium to the cells. The incubation was continued at 37° C. in CO2 incubator for 4 h. Medium was removed and cells were washed with phosphate buffered saline. The cells were lysed and luciferase activity was measured in a Luminometer. Luminescence units were plotted against the compound concentrations using Graphpad software. EC50 values of the compounds were defined as the concentration required in stimulating the luciferase activity by 50% in presence of EC20 of acetylcholine.

[9] = Rodent pharmacokinetic study; type: in vivo, Male Wistar rats; details: rat
Description: Male Wistar rats (260±50 grams) were used as experimental animals. Animals were housed individually in polypropylene cage. Two days prior to study, male Wistar rats were anesthetized with isoflurane for surgical placement of jugular vein catheter. Rats were randomly divided for oral (3 mg/kg) and intravenous (i.v) (1 mg/kg) dosing (n=3/group) and fasted overnight before oral dosing (p.o.). However, rats allocated to intravenous (i.v.) dosing food and water was provided ad libitum.
At pre-determined point, blood was collected through jugular vein and replenished with an equivalent volume of normal saline. Collected blood was transferred into a labeled eppendorf tube containing 10 μL of heparin as an anticoagulant. Typically blood samples were collected at following time points: 0.08, 0.25, 0.5, 1, 2, 4, 6, 8, and 24 h post dose. Blood was centrifuged at 4000 rpm for 10 minutes. Plasma was separated and stored frozen at −80° C. until analysis. The concentrations of the test compounds were quantified in plasma by qualified LC-MS/MS method using suitable extraction technique. The test compounds were quantified in the calibration range around 1-1000 ng/mL in plasma. Study samples were analyzed using calibration samples in the batch and quality control samples spread across the batch.
Pharmacokinetic parameters Cmax, AUCt, T1/2, clearance and bioavailability (F) were calculated by non-compartmental model using standard non-compartmental model by using Phoenix WinNonlin 6.0.2 or 6.0.3 version Software package and the results are tabulated below.

[10] = Rodent brain penetration study; type: in vivo, Male Wistar rats; details: male, Wistar, brain/plasma, po; rat, 3 mg/kg, p.o. @ 1.0 hr; read-out: Single dose Rat Brain Penetration (Cb/Cp)
Description: Male Wistar rats (260±40 grams) were used as experimental animals. Three animals were housed in each cage. Animals were given water and food ad libitum throughout the experiment and maintained on a 12 h light/dark cycle.
Brain penetration was determined in discrete manner in rats. One day prior to dosing day, male Wistar rats were acclimatized and randomly grouped according to their weight. At each time point (0.5, 1 and 2 h) n=3 animals were used.
The test compounds were suitably preformulated and administered orally at (free base equivalent) 3 mg/kg. Blood samples were removed via cardiac puncture by using isoflurane anesthesia. The animals were sacrificed to collect brain tissue. Plasma was separated and brain samples were homogenized and stored frozen at −20° C. until analysis. The concentrations of the test compounds in plasma and brain were determined using LC-MS/MS method.
The test compounds were quantified in plasma and brain homogenate by qualified LC-MS/MS method using suitable extraction technique. The test compounds were quantified in the calibration range of 1-500 ng/mL in plasma and brain homogenate. Study samples were analyzed using calibration samples in the batch and quality control samples spread across the batch.

[11] = male, Wistar, plasma, iv, i.v. 1 mg/kg
[12] = male, Wistar, plasma, oral 3 mg/kg

fraction unbound at 6 h, 1 μM [1]: 0.48
fraction unbound at 6 h, 1 μM [2]: 0.0022 ± 0.001
fraction unbound at 6 h, 1 μM [3]: 0.709
fraction unbound at 6 h, 1 μM [4]: 0.0141 ± 0.003
fraction unbound at 6 h, 1 μM [5]: 0.0069
fraction unbound at 6 h, 1 μM [6]: 0.0063
fraction unbound at 6 h, 1 μM [7]: 0.551 ± 0.013
SMILES: COc1ccc(Cc2cc3c(cc2C)CN([C@H]2CCCC[C@@H]2O)C3=O)cc1 [Comparative compound, reference compound]

EC50 [8]: 288 nM
SMILES: Cc1nc2c(cc1Cc1ccc(-c3cnn(C)c3)nc1)C(=O)N([C@H]1CCCC[C@@H]1O)C2 [Example 2, 6-(1S,2S-2-Hydroxycyclohexyl)-2-methyl-3-[2-(1-methyl-1H-pyrazol-4-yl)pyridin-5-ylmethyl]-6,7-dihydropyrrolo[3,4-b]pyridin-5-one]

EC50 [8]: 107 nM
SMILES: Cc1nc2c(cc1Cc1ccc(-c3cscn3)cc1)C(=O)N([C@H]1CCCC[C@@H]1O)C2 [Example 4, 6-(1S,2S-2-Hydroxycyclohexyl)-2-methyl-3-(4-thiazol-4-ylbenzyl)-6,7-dihydropyrrolo[3,4-b]pyridin-5-one]

EC50 [8]: 1500 nM
AUC(0-t) [9, 11]: 1220 ± 25 ng·h/mL
clearance [9, 11]: 13.5 ± 0.3 mL/min/kg
half-life [9, 11]: 78 ± 18 min
AUC(0-t) [9, 12]: 1290 ± 387 ng·h/mL
Cmax [9, 12]: 592 ± 142 ng/mL
half-life [9, 12]: 66 ± 24 min
F ([9]; oral 3 mg/kg vs i.v. 1 mg/kg): 35 ± 11%
Kp at 1 h [10]: 0.25 ± 0.04
SMILES: Cc1nc2c(cc1Cc1ccc(F)cc1)C(=O)N([C@H]1CCCC[C@@H]1O)C2 [Example 9, 6-(1S,2S-2-Hydroxycyclohexyl)-2-methyl-3-(4-fluorobenzyl)-6,7-dihydropyrrolo[3,4-b]pyridin-5-one]

EC50 [8]: 2780 nM
SMILES: Cc1nc2c(cc1Cc1cccc(F)c1)C(=O)N([C@H]1CCCC[C@@H]1O)C2 [Example 10, 6-(1S,2S-2-Hydroxycyclohexyl)-2-methyl-3-(3-fluorobenzyl)-6,7-dihydropyrrolo[3,4-b]pyridin-5-one]

EC50 [8]: 669 nM
SMILES: COc1ccc(Cc2cc3c(nc2C)CN(C2COCCC2O)C3=O)cc1 (centres unmarked) [Example 13, 6-(4-Hydroxytetrahydropyran-3-yl)-3-(4-methoxybenzyl)-2-methyl-6,7-dihydropyrrolo[3,4-b]pyridin-5-one]

EC50 [8]: 643 nM
SMILES: COc1ccc(Cc2cc3c(nc2C)CCN([C@H]2CCCC[C@@H]2O)C3=O)cc1 [Example 14, 6-(1S,2S-2-Hydroxycyclohexyl)-2-methyl-3-(4-methoxybenzyl)-7,8-dihydro-6H-[1,6]naphthyridin-5-one]

EC50 [8]: 1320 nM
SMILES: Cc1nc(-c2ccc(Cc3cc4c(nc3C)CN(C3CCOCC3)C4=O)cc2)co1 [Example 16, 6-(Tetrahydropyran-4-yl)-2-methyl-3-[4-(2-methyl-oxazol-4-yl)-benzyl]-6,7-dihydropyrrolo[3,4-b]pyridin-5-one]

EC50 [8]: 774 nM
SMILES: Cc1nc2c(cc1Cc1cccc(Cl)c1)C(=O)N([C@H]1CCCC[C@@H]1O)CC2 [Example 18, 6-(1S,2S-2-Hydroxycyclohexyl)-2-methyl-3-(3-chlorobenzyl)-7,8-dihydro-6H-[1,6]naphthyridin-5-one]

EC50 [8]: 972 nM
SMILES: Cc1nc2c(cc1Cc1ccc(F)c(F)c1)C(=O)N([C@H]1CCCC[C@@H]1O)CC2 [Example 19, 6-(1S,2S-2-Hydroxycyclohexyl)-2-methyl-3-(3,4-difluorobenzyl)-7,8-dihydro-6H-[1,6]naphthyridin-5-one]

EC50 [8]: 1210 nM
SMILES: COc1cccc(Cc2cc3c(nc2C)CCN([C@H]2CCCC[C@@H]2O)C3=O)c1 [Example 24, 6-(1S,2S-2-Hydroxycyclohexyl)-2-methyl-3-(3-methoxybenzyl)-7,8-dihydro-6H-[1,6]naphthyridin-5-one]

EC50 [8]: 929 nM
SMILES: Cc1nc2c(cc1Cc1ccnc(F)c1)C(=O)N([C@H]1CCCC[C@@H]1O)C2 [Example 28, 6-(1S,2S-2-Hydroxycyclohexyl)-2-methyl-3-(2-fluoropyridin-4-ylmethyl)-6,7-dihydropyrrolo[3,4-b]pyridin-5-one]
